Reference: the NIST ThermoML archive (doi:10.1021/je060353z)

Experiment: xn = mol fraction of the nth substance listed
Conditions: 101 kPa, Liquid

CCCCCCCCCCO [decan-1-ol] + Clc1ccccc1
x2 = 0
Conditions | mass density [kg/m3] | speed of sound [m/s] | viscosity [mPa·s]
298.15 K | 826.762 | 1380 | 11.83
303.15 K | 822.853 | 1365 | 9.754
308.15 K | 819.427 | 1346.1 | 8.135
313.15 K | 815.983 | 1329.3 | 6.842

Clc1ccccc1 [chlorobenzene] + CCCCCCCCCO
x1 = 1
Conditions | mass density [kg/m3] | speed of sound [m/s] | viscosity [mPa·s]
298.15 K | 1100.67 | 1268 | 0.757
303.15 K | 1095.1 | 1249.4 | 0.714
308.15 K | 1089.08 | 1230.9 | 0.677
313.15 K | 1083.66 | 1212.6 | 0.617

Clc1ccccc1 [chlorobenzene] + CCCCCCO
Conditions | mass density [kg/m3] | speed of sound [m/s] | viscosity [mPa·s]
298.15 K, x1 = 0.1144 | 842.629 | 1297.7 | 3.576
298.15 K, x1 = 0.2338 | 872.274 | 1289.8 | 2.746
298.15 K, x1 = 0.3573 | 904.193 | 1281.6 | 2.107
298.15 K, x1 = 0.4628 | 932.67 | 1274.8 | 1.699
298.15 K, x1 = 0.5568 | 959.077 | 1269.2 | 1.417
298.15 K, x1 = 0.6542 | 987.534 | 1264.3 | 1.184
298.15 K, x1 = 0.7457 | 1015.51 | 1260.9 | 1.008
298.15 K, x1 = 0.8353 | 1044.18 | 1259.3 | 0.873
298.15 K, x1 = 0.9171 | 1071.62 | 1260.9 | 0.788
298.15 K, x1 = 1 | 1100.97 | 1268 | 0.757
303.15 K, x1 = 0.1144 | 839.289 | 1280.6 | 3.096
303.15 K, x1 = 0.2338 | 868.705 | 1272.5 | 2.414
303.15 K, x1 = 0.3573 | 900.355 | 1264 | 1.87
303.15 K, x1 = 0.4628 | 928.591 | 1257.1 | 1.515
303.15 K, x1 = 0.5568 | 954.767 | 1251.6 | 1.274
303.15 K, x1 = 0.6542 | 982.986 | 1246.6 | 1.079
303.15 K, x1 = 0.7457 | 1010.71 | 1243.1 | 0.935
303.15 K, x1 = 0.8353 | 1039.12 | 1241.5 | 0.824
303.15 K, x1 = 0.9171 | 1066.27 | 1243.2 | 0.752
303.15 K, x1 = 1 | 1095.1 | 1249.4 | 0.714
308.15 K, x1 = 0.1144 | 835.421 | 1263.6 | 2.695
308.15 K, x1 = 0.2338 | 864.604 | 1255.4 | 2.123
308.15 K, x1 = 0.3573 | 895.988 | 1246.7 | 1.665
308.15 K, x1 = 0.4628 | 923.985 | 1239.7 | 1.369
308.15 K, x1 = 0.5568 | 949.942 | 1233.9 | 1.165
308.15 K, x1 = 0.6542 | 977.948 | 1228.9 | 0.997
308.15 K, x1 = 0.7457 | 1005.42 | 1225.4 | 0.87
308.15 K, x1 = 0.8353 | 1033.55 | 1224.3 | 0.772
308.15 K, x1 = 0.9171 | 1060.41 | 1225.8 | 0.711
308.15 K, x1 = 1 | 1089.08 | 1230.9 | 0.677
313.15 K, x1 = 0.1144 | 831.574 | 1246.5 | 2.35
313.15 K, x1 = 0.2338 | 860.561 | 1238.5 | 1.865
313.15 K, x1 = 0.3573 | 891.747 | 1229.8 | 1.478
313.15 K, x1 = 0.4628 | 919.571 | 1222.9 | 1.223
313.15 K, x1 = 0.5568 | 945.388 | 1216.7 | 1.044
313.15 K, x1 = 0.6542 | 973.227 | 1211.6 | 0.896
313.15 K, x1 = 0.7457 | 1000.53 | 1207.9 | 0.78
313.15 K, x1 = 0.8353 | 1028.46 | 1206.6 | 0.692
313.15 K, x1 = 0.9171 | 1055.09 | 1208.2 | 0.637
313.15 K, x1 = 1 | 1083.66 | 1212.6 | 0.617
